Measurements reported in patent EP1932513A2, “Compounds for improving the visual appearance of the skin” (Henkel AG & Co. KGaA, priority 2006, dated 2008).

What was measured:
Proteasom = experiment: Proteasome activity (suc-LLVY-MCA hydrolysis) in lysate of treated fibroblasts; assay type: cell-based, menschlich
Procedure: (§1) Dermale Fibroblasten (isoliert aus menschlicher Vorhaut) wurden bei 37°C und 5 Vol.-% CO2 mit Dulbecco's Minimal Essential Medium High Glucose unter Zusatz von 1 Gew.-% Glutamax, 1 Gew.-% Penicillin/Streptomycin und 10 Gew.-% fetalem Kälberserum kultiviert. Zur UV-A Bestrahlung mittels eines Teilkörperbestrahlungshimmels Typ Sellamed 2000 (Dr. Sellmeier; Bestrahlungsspektrum: 340-400 nm, Maximum: 360-380 nm) wurden die Zellen in Petrischalen ausplattiert (ca. 3,8 x 10^4 Zellen/cm^2; zuzüglich 2 Tage Wachstum, danach noch subkonfluent), das Zellmedium abgesaugt, die Zellen einmal mit PBS gewaschen und die UV-A Bestrahlung anschließend in PBS durchgeführt (Dosierung über Zeitintervall bis zu 14min bei […]). Nach UV-A Bestrahlung und Entfernung des PBS wurden die Zellen wieder mit Zellmedium versetzt und bis zur Zellernte bei 37°C, 5 Vol.-% CO2 aufbewahrt. Nach Zelltrypsinierung und -schabung erfolgte unter Zusatz von hypotonem Salzpuffer (10 mM HEPES, 24 mM KCl, 10 mM MgCl2, pH 7,5) und Anwendung der Frier-Tau-Technik die Herstellung des Zelllysats. Nicht lysierte Zellen sowie Membranen und Zellkerne wurden durch zehnminütige Zentrifugation bei 14000 rpm und 4°C abgetrennt.
(§2) Getestete Substanzen: • Natriumascorbylphosphat (0,025 mg/ml), BASF, entsprechend einem Aktivsubstanzgehalt in der Testlösung von 0,0025 Gew.-% • Hypotaurin 0,25 (mg/ml), Siber Hegner (entsprechend einem Aktivsubstanzgehalt in der Testlösung von 0,025 Gew.-%) • Kombuchka (7,5 mg/ml), Sederma (entsprechend einem Aktivsubstanzgehalt in der Testlösung von 0,02 - 0,053 Gew.-%) • Glistin (0,5 mg/ml), Exsymol (entsprechend 4,5 - 5,5' 10^-4 Gew.-% Glutamylamidoethylindol in der Testlösung) • Gingkoselect Phytosome (0,15 mg/ml), Indena (entsprechend 0,9 - 1,8 · 10^-5 Gew.-% […]-Aktivsubstanz in der Testlösung), wird vom Hersteller als Antioxidans ausgelobt.
Die Behandlung der Fibroblasten mit Antioxidantien erfolgte wie unter 2.3.3. Das Zelllysat wurde mit einem Puffer, der Tris-HCl (pH=7,8 bei 37°C), KCI, Mg-Acetat, MgCl2 und Dithiothreitol enthält, versetzt. Nach Zugabe von 10µl einer 2mM Stammlösung von suc-LLVY-MCA (N-Succinyl-Leucin-Leucin-Valin-Tyrosin-4-Methyl-cumaryl-7-amid) erfolgte eine 30-minütige Inkubation bei 37°C. Anschließend wurde die Fluoreszenz des Hydrolyseprodukts MCA (4-Methyl-cumaryl-7-amid) am Fluorimeter bestimmt (Anregungswellenlänge: 390 nm, Detektionswellenlänge: 460nm) und die MCA-Konzentration unter Verwendung einer Standardreihe bestimmt.

Dermale Fibroblasten = experiment: Protein carbonyls in vitro (ELISA) in UV-A irradiated and non-irradiated fibroblasts; assay type: cell-based, menschlich; conditions: for durch UV-A-Bestrahlung induzierter Anstieg des Proteincarbonyl-Gehalts: summary in words of the fibroblast results
Procedure: as §1, §2
Fibroblasten wurden für 16 Stunden mit Antioxidantien-haltigem Medium versetzt. Nach UV-A Bestrahlung in PBS wurden die Fibroblasten anschließend wieder für 3 Stunden mit Antioxidantien-haltigem Medium versetzt und lysiert. Die Detektion der Proteincarbonyle erfolgte per ELISA Technik nach Buss et al. mit Veränderungen nach Sitte et al.. Das Zelllysat wurde mit Dinitrophenylhydrazin versetzt, und die gebildeten Hydrazone wurden mit Hilfe des primären Antikörpers Anti-Dinitrophenyl-Rabbit-IgG detektiert. Als sekundärer Antikörper wurde der Anti-Rabbit-IgG-Antikörper (Peroxidase-konjugiert) verwendet und die Menge des gebundenen, sekundären Antikörpers nach Entwicklung mit o-Phenylendiamin und Wasserstoffperoxid detektiert.

[1] = bestrahlt (UV-A), unbehandelt bestrahlt = 23,41, unbehandelt und unbestrahlt = 100 %
[2] = unbestrahlt, unbehandelt = 100 %
[3] = bestrahlt (UV-A), unbehandelt bestrahlt = 171,43, test concentrations: Natriumascorbylphosphat 0,025 mg/ml, Hypotaurin 0,25 mg/ml, Kombuchka 7,5 mg/ml, Glistin 0,5 mg/ml, Gingkoselect Phytosome 0,15 mg/ml

| SMILES | Proteasomaktivität MW (%) (Proteasom; [1]) | Proteasomaktivität MW (%) (Proteasom; [2]) | Proteincarbonyl-Gehalt [%, relativ zum unbehandelten und unbestrahlten Zustand] (Dermale Fibroblasten; [3]) | durch UV-A-Bestrahlung induzierter Anstieg des Proteincarbonyl-Gehalts (Dermale Fibroblasten) | Proteincarbonyl-Gehalt [%, relativ zum unbehandelten und unbestrahlten Zustand] (Dermale Fibroblasten; unbestrahlt, unbehandelt = 100) |
| --- | --- | --- | --- | --- | --- |
| NC(CCC(=O)O)C(=O)NCCc1c[nH]c2ccccc12 (stereo not drawn) [Glistin, Glutamylamidoethylindol] | 24,94% | 119,32% | 139,96% | reduzieren | 112,69% |
| O=C1O[C@H]([C@@H](O)CO)C(O)=C1OP(=O)(O)O [Natriumascorbylphosphat] | 33,36% | 104,74% | 124,18% | reduzieren | 86,82% |
| NCCS(=O)O [Hypotaurin] | 32,9% | 144,37% | 151,3% | reduzieren | 128,32% |
